In patent publication US12533095B1, “Airway mucus scoring system” (The Regents of the University of California, priority 2016, dated 2026):

Columns and labels:
[1] = Maximum bronchodilator reversibility test (MBRT); format: in vivo, human
Procedure: (§1) Treatment response to bronchodilators and systemic corticosteroids: Maximum Bronchodilator Reversibility tests (MBRT's) were performed on baseline visits 2 and 3. MBRT was determined by measuring spirometry before and after 360-720 meg of albuterol sulfate delivered by metered-dose inhaler. Patients also underwent a systemic corticosteroid response test (SCRT), which involved an intramuscular injection of triamcinolone acetonide (40 mg) on visit 2 and repeat characterization including MBRT and blood draw on visit 3 (2-4 weeks later). Maximum bronchodilator reversibility test (MBRT): Subjects were asked to hold their bronchodilator medications prior to spirometry testing. Following baseline spirometry, 4 puffs of albuterol (360 mcg) were administered. Spirometry was then repeated 15 minutes later. If the change in FEV1 from the spirometry maneuver performed after 4 puffs was greater than 5%, an additional 2 puffs of albuterol (180 mcg) were then administered and spirometry was repeated again 15 minutes later. If the change in FEV1 after 6 puffs was greater than 5%, an additional 2 puffs of albuterol were administered with repeat spirometry after an additional 15 minutes. If the change was less than 5% after 4 or 6 puffs of albuterol, the procedure was stopped and the last maneuver was taken to be the highest achievable measure. No more than 8 puffs of albuterol were administered as part of the MBRT procedure. MBRT was measured on baseline visits 2 and 3 (FIG. 5).

[2] = Systemic corticosteroid responsiveness test (SCRT); format: in vivo, human
Procedure: Systemic Corticosteroid Responsiveness Test (SCRT): Patients were given an intramuscular injection of triamcinolone acetonide (40 mg) following complete characterization on visit 2. Repeat characterization post steroid injection (excluding MDCT), was carried out on visit 3 (2-4 weeks later) (FIG. 5). Treatment response to bronchodilators and systemic corticosteroids: Maximum Bronchodilator Reversibility tests (MBRT's) were performed on baseline visits 2 and 3. MBRT was determined by measuring spirometry before and after 360-720 meg of albuterol sulfate delivered by metered-dose inhaler. Patients also underwent a systemic corticosteroid response test (SCRT), which involved an intramuscular injection of triamcinolone acetonide (40 mg) on visit 2 and repeat characterization including MBRT and blood draw on visit 3 (2-4 weeks later). Induced Sputum: Sputum induction was done on visits 2 and 3. For safety, induced sputum was only collected from patients whose FEV1 was >50% predicted after albuterol pretreatment (360 μg). Total and differential cell counts were quantified in a central laboratory (Wake Forest University) using methods previously described^5,6. Gene expression for type 2 cytokines [interleukin (IL)-4, IL-5, and IL-13] and for airway gel-forming mucins (MUC5AC, MUC5B) were measured in RNA isolated from induced sputum cell pellets using real-time Taqman-based quantitative PCR (qPCR) 7 as described herein (including Table 3). RNA isolation and qPCR were done in a central laboratory (University of California at San Francisco).

[3] = Bronchodilator reversibility testing repeated after intramuscular corticosteroid (combined SCRT and MBRT); format: in vivo, human; details: patients with high mucus scores; bronchodilator reversibility testing repeated after intramuscular steroid
Procedure: as §1, with “Systemic Corticosteroid Responsiveness Test (SCRT): Patients were given an intramuscular injection of triamcinolone acetonide (40 mg) following complete characterization on visit 2. Repeat characterization post steroid injection (excluding MDCT), was carried out on visit 3 (2-4 weeks later) (FIG. 5). Treatment” for “Treatment”, “If the change in FEV1 after 6 puffs was greater than 5%, an additional 2 puffs of albuterol were administered with repeat spirometry after an additional 15 minutes. If the change was less than 5% after 4 or 6 puffs of albuterol, the procedure was stopped and the last maneuver was taken to be the highest achievable measure. No more than 8 puffs of albuterol were administered as part of the MBRT procedure.” left out

[4] = system: primary human airway epithelial cells; test: Apical secretion of Eotaxin-3 (CCL26) at air liquid interface; format: cell-based; details: 10 ng/ml in basolateral media for 4 days; vs untreated control (FIG. 11E)
Source text: Apical secretion of Eotaxin-3 (CCL26): Human airway epithelial cells (AECs) were isolated from tracheas collected from cadaveric lung donors from the California Donor Network as a part of a separate study (Gordon et al., Proc Natl Acad Sci USA. 113, 8765-8770. doi: 8710.1073/pnas.1601914113. Epub 160191216 Jul. 1601914118. (2016)). Cells were expanded in 5% FCS in DMEM/F12 supplemented with a rho kinase inhibitor (Y-27632 SellekChem) to promote proliferation (Liu et al., Am J Pathol. 180, 599-607. doi: 510.1016/j.ajpath.2011.1010.1036. Epub 211 Dec. 1018. (2012)). Once cells reached 90% confluency flasks were washed and cells trypsinized with TrypLE (Gibco). Subconfluent cells were plated to submerged transwell inserts, using the modified Schlegel culture conditions previously described (Chu et al., Gene Ther. 22, 822-829. doi: 810.1038/gt.2015.1053. Epub 2015 July 1032. (2015)). Once cells reached confluence, the cultures were taken to air-liquid interface (ALI) in PnuemaCult Maintenance media (StemCell Technologies) and maintained for 21-days. At day 21, cells were treated with 10 ng/ml recombinant human IL-13 (R&D systems) in the basolateral media for 4 days. To measure eotaxins secreted at the apical surface of ALI cultures. 300 μL warmed PBS was added to the surface of the cells. […]

eosinophils = test: Cysteine cross-linking assay (BODIPY labeled cysteine exposed to eosinophils); format: cell-based, human; details: unstimulated and PMA-stimulated eosinophils; vs catalase-free control (FIG. 11H)
Procedure: Eosinophil Isolation and stimulation of respiratory burst: Eosinophils were purified from the peripheral blood of 4 atopic asthmatic subjects (age 48±23 years). Each subject donated 100 mL of blood on one or more occasions. All subjects signed consent forms and usage was approved by the UCSF Committee on Human Research. Eosinophils were isolated from whole blood using a three-step method in which we first pelleted the cells, followed by water lysis to remove red blood cells and finally eosinophils were purified using immunomagnetic beads (Human Eosinophil Isolation kit. Miltenyi Biotec). Briefly, whole blood was collected in EDTA (purple-top) tubs and pelleted at 1500 g for 15 minutes at 4° C. The plasma on top was removed and cell pellet retained for two cycles of water lysis. […]
Cysteine cross-linking assay: To explore cystine formation generated by eosinophil stimulation, BODIPY FL L-cysteine was generated from […] BODIPY FL L-Cystine (ThermoFisher Scientific) in Tyrode's Salts by reduction with one quarter volume packed TCEP-Gel (ThermoFisher Scientific) for 1 hour at 25° C. The reaction yields an 8 to 10-fold increase in fluorescence at 490 nm/520 nm Ex/Em. […] The decrease in fluorescence at 490 nm/520 nm Ex/Em was monitored over 2 hours at 37° C. on a Synergy H1 plate reader (BioTek Instruments) with the addition of 50,000 peripheral blood eosinophils in 100 μl Tyrode's Salts. […]

CC(C)(C)NCC(O)c1ccc(O)c(CO)c1 (stereo not shown) [albuterol]
patients with residual abnormalities in FEV1 (FEV1 <80% predicted) following maximum bronchodilator testing ([1]; asthma patients with a high mucus score): 73%
patients with residual FEV1 abnormalities after maximum bronchodilation testing ([1]; asthma patients with a zero-mucus score): 20%
mean post-bronchodilator FEV1 in the high mucus group lower than in the zero-mucus group ([1]; asthma patients, inhaled albuterol (540-720 mcg), high vs zero mucus group): 24%

CC1(C)O[C@@H]2C[C@H]3[C@@H]4CCC5=CC(=O)C=C[C@]5(C)[C@@]4(F)[C@@H](O)C[C@]3(C)[C@]2(C(=O)CO)O1 [triamcinolone acetonide]
patients with residual abnormalities in FEV1 following the SCRT ([2]; asthma patients with high mucus scores, intramuscular 40 mg): 72%
patients with residual FEV1 abnormalities following the SCRT ([2]; asthma patients with zero mucus scores, intramuscular 40 mg): 28%
mean post steroid FEV1 lower in the high-mucus group than the zero-mucus group ([2]; asthma patients, intramuscular 40 mg, high vs zero mucus group): 21%
Sputum eosinophil % following treatment with intramuscular steroid ([2]; patients with a high mucus score (FIG. 10A)): remains significantly increased
Gene expression for interleukin 13 in sputum cells following treatment with intramuscular steroid ([2]; patients with a high mucus score (FIG. 10B)): remains significantly increased
Gene expression for interleukin 5 in sputum cells following treatment with intramuscular steroid ([2]; patients with a high mucus score (FIG. 10C)): remains significantly increased
FEV1% predicted post steroid treatment ([2]; subjects with a high mucus score (FIG. 4B)): remained significantly decreased
proportion of patients whose FEV1 remained below 80% [3]: half

IL-13: recombinant human IL-13 (R&D systems) used to stimulate airway epithelial cells
concentration of eotaxin-3 in apical mucus secretions [4]: marked increases

catalase
cystine dimer formation (eosinophils): significantly decreased
